Experimental data reported in ChEMBL document CHEMBL1201862, “PubChem BioAssay data set” (2004).
Calls of active or inactive are those of the source.

What was measured:
[1] = HEp-2 cell cytotoxicity, dose response, cytotoxicity control for RSV inhibitor project, HTS (AID 2410); type: functional; settings: human respiratory syncytial virus
[2] = Luminescence Cell-Based Dose Retest to Confirm Inhibitors of Cancer Stem Cells. [Related pubchem assays (depositor defined):AID2717, AID2721]; type: functional; settings: Homo sapiens
INS1 = assay: beta cell apoptosis inhibitors, cytokine rescue, dose response, luminescence, retest (AID 449756); type: functional, cell-based; settings: Rattus norvegicus;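 further: cell death triggered by IL-1 beta plus TNF-alpha plus IFN-gamma mixture; protective hits raise ATP signal compared with cytokine alone wells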
cells [3] = assay: cells
[4] = Vero E6 cell cytotoxicity, dose response, cytotoxicity control for non-replicating M. tuberculosis project, secondary assay (AID 492998); type: functional, VeroE6; settings: Vero C1008
cells [5] = type: functional
[6] = target: T1, RNA-binding protein pos-1 (Caenorhabditis elegans, UniProt G5EF15); assay: inhibitors of POS-1/mex-3 RNA binding, dose response, biochemical, fluorescence polarization (AID 1964);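 further: purified POS-1 fused to maltose binding protein made in E. coli; potency of compounds blocking POS-1 binding to fluorescent RNA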
T1 sequence (G5EF15 whole entry): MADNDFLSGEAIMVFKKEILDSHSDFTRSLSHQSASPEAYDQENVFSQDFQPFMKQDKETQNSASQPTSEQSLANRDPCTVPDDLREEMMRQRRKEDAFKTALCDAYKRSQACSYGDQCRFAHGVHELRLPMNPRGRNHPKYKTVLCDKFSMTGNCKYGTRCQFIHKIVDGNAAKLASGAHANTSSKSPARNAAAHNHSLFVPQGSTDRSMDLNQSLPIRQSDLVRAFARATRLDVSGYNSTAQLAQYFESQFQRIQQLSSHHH

[7] = target: T2, Zinc finger protein mex-5 (Caenorhabditis elegans, UniProt Q9XUB2); assay: MEX-5/TCR-2 RNA interaction inhibitors, dose response, biochemical, C. elegans, fluorescence polarization (AID 1960)
T2 sequence (Q9XUB2 whole entry): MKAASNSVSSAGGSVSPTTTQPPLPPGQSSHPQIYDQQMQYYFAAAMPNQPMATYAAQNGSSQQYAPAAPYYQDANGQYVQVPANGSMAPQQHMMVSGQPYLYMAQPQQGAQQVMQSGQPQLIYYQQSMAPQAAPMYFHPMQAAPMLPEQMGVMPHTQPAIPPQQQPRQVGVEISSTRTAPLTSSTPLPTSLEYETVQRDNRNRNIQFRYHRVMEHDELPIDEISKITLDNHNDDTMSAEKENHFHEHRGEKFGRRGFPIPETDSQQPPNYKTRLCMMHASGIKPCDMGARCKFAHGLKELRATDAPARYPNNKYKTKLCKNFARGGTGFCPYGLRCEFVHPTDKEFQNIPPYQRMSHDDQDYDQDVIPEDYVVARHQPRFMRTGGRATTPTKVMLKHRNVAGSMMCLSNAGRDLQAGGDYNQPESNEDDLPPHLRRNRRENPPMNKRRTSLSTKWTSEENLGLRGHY

[8] = LGR2 antagonists, dose response, cell-based, HEK293, CRE-luciferase reporter, cherry pick, set 2 (AID 743343); type: functional;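 further: transfected cells were stimulated with diluted bursicon conditioned medium after compound addition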
Cytochrome P450 3A4 = Cytochrome P450 3A4 (Homo sapiens, UniProt P08684); settings: Potency;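 further: confirmatory qHTS run detecting inhibitors and substrates of CYP3A4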
Aminopeptidase N = target: T3, Aminopeptidase N (Plasmodium falciparum FcB1/Columbia, UniProt O96935); assay: P. falciparum M1AAP inhibitors, biochemical, fluorogenic H-Leu-NHMec substrate, 1536-well (AID 1445); parameters: species or system Plasmodium falciparum 3D7, 3D7
T3 sequence (O96935 whole entry): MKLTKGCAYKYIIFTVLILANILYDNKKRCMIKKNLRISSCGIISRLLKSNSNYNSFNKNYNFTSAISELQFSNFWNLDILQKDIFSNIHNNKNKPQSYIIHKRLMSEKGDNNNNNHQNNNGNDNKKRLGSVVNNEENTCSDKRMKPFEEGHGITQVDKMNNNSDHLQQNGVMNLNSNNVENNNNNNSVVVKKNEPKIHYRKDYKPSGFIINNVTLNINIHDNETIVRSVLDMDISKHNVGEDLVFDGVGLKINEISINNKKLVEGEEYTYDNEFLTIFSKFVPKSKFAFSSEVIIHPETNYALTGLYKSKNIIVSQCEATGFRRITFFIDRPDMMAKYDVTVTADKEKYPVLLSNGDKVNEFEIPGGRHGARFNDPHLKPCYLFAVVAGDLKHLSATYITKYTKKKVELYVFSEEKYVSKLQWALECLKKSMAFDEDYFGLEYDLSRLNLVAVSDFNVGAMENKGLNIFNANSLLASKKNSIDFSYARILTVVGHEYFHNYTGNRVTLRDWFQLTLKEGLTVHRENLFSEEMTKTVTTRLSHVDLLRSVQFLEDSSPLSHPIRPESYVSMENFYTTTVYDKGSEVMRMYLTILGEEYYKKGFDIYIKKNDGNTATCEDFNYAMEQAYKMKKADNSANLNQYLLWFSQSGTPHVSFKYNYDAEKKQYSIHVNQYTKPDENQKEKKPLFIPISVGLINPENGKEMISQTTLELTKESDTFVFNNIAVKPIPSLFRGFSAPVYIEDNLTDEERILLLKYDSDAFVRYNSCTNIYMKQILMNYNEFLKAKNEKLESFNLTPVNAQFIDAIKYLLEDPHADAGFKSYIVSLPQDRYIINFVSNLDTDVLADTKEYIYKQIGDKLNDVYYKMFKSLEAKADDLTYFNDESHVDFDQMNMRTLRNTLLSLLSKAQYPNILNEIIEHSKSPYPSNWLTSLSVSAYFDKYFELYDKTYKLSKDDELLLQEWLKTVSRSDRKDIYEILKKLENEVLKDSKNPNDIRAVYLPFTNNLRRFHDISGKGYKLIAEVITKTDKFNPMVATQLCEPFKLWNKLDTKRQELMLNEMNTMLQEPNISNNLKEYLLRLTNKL

Genome polyprotein = Genome polyprotein (dengue virus type 2, UniProt P29990); assay: Dengue-2 NS5 methyltransferase inhibitors, primary screen, biochemical, confirmation dose response (AID 588689); type: functional
[9] = cytotoxicity in HEK-293T cells, dose response, cytotoxicity control for TCR NF-kB inhibitor project, luminescence, T-cell screen hits (AID 489026); type: functional, cell-based;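 further: cells exposed to compound about 14 hours before the viability readout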
[10] = target: T4, Microphthalmia-associated transcription factor (Homo sapiens, UniProt O75030); assay: TRPM1 promoter luciferase signal decrease, dose response, MITF inhibitor project, cell-based, SK-MEL-5, cherry-picked, set 3 (AID 493073); type: functional
T4 sequence (O75030 whole entry): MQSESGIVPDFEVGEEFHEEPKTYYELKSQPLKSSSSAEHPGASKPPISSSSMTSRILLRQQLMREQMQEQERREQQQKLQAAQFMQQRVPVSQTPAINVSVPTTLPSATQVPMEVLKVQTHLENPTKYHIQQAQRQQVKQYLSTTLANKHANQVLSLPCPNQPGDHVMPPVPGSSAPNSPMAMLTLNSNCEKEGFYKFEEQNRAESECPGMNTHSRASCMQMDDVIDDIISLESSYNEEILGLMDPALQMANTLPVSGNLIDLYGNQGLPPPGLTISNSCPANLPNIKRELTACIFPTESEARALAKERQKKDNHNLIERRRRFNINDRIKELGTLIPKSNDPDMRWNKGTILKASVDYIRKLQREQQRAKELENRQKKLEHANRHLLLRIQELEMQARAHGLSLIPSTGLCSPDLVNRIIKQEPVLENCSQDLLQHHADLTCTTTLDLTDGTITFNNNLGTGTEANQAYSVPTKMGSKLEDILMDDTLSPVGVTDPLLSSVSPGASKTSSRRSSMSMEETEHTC

Paired box protein Pax-8 = Paired box protein Pax-8 (Homo sapiens, UniProt Q06710); assay: inhibitors of PAX8-driven TPO luciferase reporter, dose response, RMG-I cells, cherry-pick (AID 687027); type: functional, cell-based;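 further: luciferase reporter driven by Pax8 target thyroperoxidase promoter measured by SteadyGlo luminescence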
[11] = P. falciparum 3D7-ScDHODH growth inhibitors, dose response, SYBR Green, dry powder samples (AID 1159570); type: functional, cell-based;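 further: parasite growth measured after 72 hours of compound exposure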
[12] = HepG2 cell cytotoxicity, dose response, cytotoxicity control, plate reader, dry powder samples (AID 1159569); type: functional, cell-based;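 further: inhibitor potency with signal falling toward the positive control level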
[13] = P. falciparum Dd2 growth inhibitors, dose response, SYBR Green, cherry-picked samples (AID 1159567); type: functional, cell-based
[14] = P. falciparum Dd2 growth inhibitors, dose response, SYBR Green, dry powder samples (AID 1159566); type: functional, cell-based;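 further: potency for growth inhibition with lower SYBR green DNA signal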
[15] = P. falciparum ATP4 D1247Y mutant growth inhibitors, dose response, NITD609-resistant line, SYBR Green, dry powder (AID 1159571); type: functional, cell-based;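 further: parasites synchronized at ring stage by sorbitol before testing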

Chain of Cytochrome P450 3A4 (P08684 whole entry): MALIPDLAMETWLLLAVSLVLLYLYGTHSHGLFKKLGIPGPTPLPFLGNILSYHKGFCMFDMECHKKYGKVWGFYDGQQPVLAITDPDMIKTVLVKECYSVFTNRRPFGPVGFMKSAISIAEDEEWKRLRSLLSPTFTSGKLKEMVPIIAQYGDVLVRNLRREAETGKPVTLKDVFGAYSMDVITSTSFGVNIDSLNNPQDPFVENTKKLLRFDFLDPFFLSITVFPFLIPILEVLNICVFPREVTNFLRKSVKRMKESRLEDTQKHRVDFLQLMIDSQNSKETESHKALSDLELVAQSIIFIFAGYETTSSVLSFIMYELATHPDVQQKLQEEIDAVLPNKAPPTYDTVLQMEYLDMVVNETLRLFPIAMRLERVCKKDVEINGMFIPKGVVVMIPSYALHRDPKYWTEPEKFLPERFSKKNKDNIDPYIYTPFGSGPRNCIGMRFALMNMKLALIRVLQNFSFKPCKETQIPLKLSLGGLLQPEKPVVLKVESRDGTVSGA
Chain of Paired box protein Pax-8 (Q06710 whole entry): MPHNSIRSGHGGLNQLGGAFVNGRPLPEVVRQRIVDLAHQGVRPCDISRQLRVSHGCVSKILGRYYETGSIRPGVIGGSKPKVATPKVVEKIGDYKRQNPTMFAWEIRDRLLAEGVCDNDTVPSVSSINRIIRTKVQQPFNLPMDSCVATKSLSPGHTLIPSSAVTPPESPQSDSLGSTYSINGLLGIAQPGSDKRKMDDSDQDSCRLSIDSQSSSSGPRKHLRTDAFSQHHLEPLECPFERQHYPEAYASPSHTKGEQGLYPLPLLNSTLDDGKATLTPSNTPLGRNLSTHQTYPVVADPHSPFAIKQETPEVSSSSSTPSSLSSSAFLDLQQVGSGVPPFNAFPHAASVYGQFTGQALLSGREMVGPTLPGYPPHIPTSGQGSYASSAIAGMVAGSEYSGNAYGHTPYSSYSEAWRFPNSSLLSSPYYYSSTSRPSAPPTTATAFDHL
Chain of Genome polyprotein (P29990 2492-3391 limits assumed): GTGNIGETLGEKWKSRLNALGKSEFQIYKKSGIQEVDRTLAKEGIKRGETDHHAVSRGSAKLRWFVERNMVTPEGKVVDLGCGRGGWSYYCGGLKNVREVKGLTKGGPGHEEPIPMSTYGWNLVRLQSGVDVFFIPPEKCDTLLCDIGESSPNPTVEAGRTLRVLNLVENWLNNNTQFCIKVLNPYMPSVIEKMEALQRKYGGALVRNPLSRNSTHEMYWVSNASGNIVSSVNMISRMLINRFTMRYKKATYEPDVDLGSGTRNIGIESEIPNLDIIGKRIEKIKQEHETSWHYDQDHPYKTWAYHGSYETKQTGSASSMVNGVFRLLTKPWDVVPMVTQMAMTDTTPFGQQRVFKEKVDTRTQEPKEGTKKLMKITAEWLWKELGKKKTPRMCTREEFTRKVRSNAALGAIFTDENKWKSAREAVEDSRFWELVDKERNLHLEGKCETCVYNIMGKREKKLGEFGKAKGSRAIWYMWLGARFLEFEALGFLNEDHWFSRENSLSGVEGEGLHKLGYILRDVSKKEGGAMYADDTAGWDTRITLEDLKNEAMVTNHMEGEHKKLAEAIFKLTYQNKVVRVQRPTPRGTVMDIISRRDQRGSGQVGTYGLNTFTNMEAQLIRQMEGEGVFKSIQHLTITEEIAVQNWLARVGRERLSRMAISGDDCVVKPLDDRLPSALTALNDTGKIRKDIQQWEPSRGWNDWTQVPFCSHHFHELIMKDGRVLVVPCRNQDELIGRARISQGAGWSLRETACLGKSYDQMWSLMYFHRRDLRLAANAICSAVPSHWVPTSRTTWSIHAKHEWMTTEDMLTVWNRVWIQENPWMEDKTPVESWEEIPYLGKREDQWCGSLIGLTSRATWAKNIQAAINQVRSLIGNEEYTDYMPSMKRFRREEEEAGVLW

N#CCSc1nc2ccccc2c2nc3ccccc3n12
CC50 [1]: 7.62 µM (active) | AC50 [2]: 3.31 µM (active) | AC50 (INS1): 8.38 µM (active) | IC50 (cells [3]): 9.82 µM (active)

C=CCn1c(NC(=O)c2ccccc2)nc2ccccc21
CC50 [4]: 17.7 µM (active) | IC50 (cells [5]): 0.68 µM (active)

O=C(c1ccc(Br)o1)N1CCN=C1SCc1cccc(F)c1
EC50 [6]: > 300 µM (not active) | EC50 [7]: > 300 µM (not active)

CC(C)(C)NC(=O)c1cccc(NC(=O)c2ccc3c(c2)C(=O)N(C(C)(C)C)C3=O)c1
CC50 [1]: > 50 µM (active) | AC50 [8]: 37.3 µM (active) | IC50 (cells [3]): 39.8 µM (active)

COC(=O)N1[C@H](C)C=C[C@]1(Cc1ccccc1)C(=O)NCc1ccc(N(C)C)cc1
AC50 (Cytochrome P450 3A4): 1 µM (inconclusive)

O=C(Nc1ccc(Cl)cc1C(=O)O)c1ccc2c(c1)C(=O)N(Cc1ccco1)C2=O
IC50 (Aminopeptidase N): 137 µM (active) | IC50 (Genome polyprotein): 46.3 µM (active)

N#C/C(=C\c1ccc(OCc2ccc(C(=O)O)cc2)cc1)C(=O)N1CCOCC1
IC50 [9]: > 80 µM (inactive) | AC50 [10]: 1.19 µM (active)

C[C@H]1CN([C@@H](C)CO)C(=O)c2c(c3ccccc3n2C)-c2ccccc2CO[C@@H]1CN(C)Cc1ccc(-c2ccccc2)cc1
AC50 (Paired box protein Pax-8): 24.9 µM (active) | AC50 [11]: 2.75 µM (active) | AC50 [12]: 22.2 µM (active) | AC50 [13]: 2.75 µM (active) | AC50 [14]: 1.49 µM (active) | AC50 [15]: 1.99 µM (active)

Fc1cccc(-c2ccc([C@@H]3[C@@H]4CN(Cc5cncnc5)C[C@H]3N4)cc2)c1
AC50 [11]: 4.51 µM (active) | AC50 [12]: 18.8 µM (active) | AC50 [13]: 1.36 µM (active) | AC50 [14]: 1.6 µM (active) | AC50 [15]: 2.67 µM (active)

COc1ccc(C(=O)c2ccc(O)cc2)c(O)c1O [2,3,4'-TRIHYDROXY-4-METHOXYBENZOPHENONE]
AC50 (Cytochrome P450 3A4): 25.1 µM (inconclusive)
